Results reported in patent publication US11999727B2 (Tango Therapeutics, Inc., priority 2020, dated 2024).

How the values were obtained:
[1] = biological target: T1, PRMT5 (Homo sapiens, UniProt O14744); assay: PRMT5 biochemical IC50 assay with no cofactor; details: PRMT5, no cofactor
T1 construct: purchased Viva (custom protein)
Source text: Table 1 indicates IC50 values (μM) against PRMT5 for exemplary compounds in the presence of SAM as cofactor, with no cofactor, and with MTA as cofactor, respectively (columns 4-6). […] Ki values can be calculated from the IC50 values as described in the Examples section. As detailed in the Examples section, for the assay performed in the presence of SAM, IC50=Ki×1.5 (Ki=IC50/1.5).

[2] = biological target: T1, PRMT5; assay: PRMT5 biochemical IC50 assay with SAM as cofactor; details: PRMT5, SAM as cofactor; read-out: SAM IC50
[3] = system: HAP1 MTAP-deleted cell line; assay: Viability assay, MTAP-deleted cell line; assay type: cell-based; details: Homo sapiens, read-out: HAP1 MTAP deleted viability
Source text: Table 1 additionally indicates IC50 values in a viability assay for the MTAP-deleted cell line (column 10), indicating the effect of treatment with compound on cell survival.

[4] = biological target: T1, PRMT5; assay: PRMT5 biochemical IC50 assay with MTA as cofactor; details: PRMT5, MTA as cofactor; read-out: MTA IC50
[5] = system: HAP1 MTAP-deleted cell line; assay: SDMA in-cell western assay, HAP1 MTAP-deleted; assay type: cell-based; details: for IC50: Homo sapiens, HAP1, SDMA in-cell western, HAP1 MTAP-deleted; for MTAP intact/deleted ratio: SDMA in-cell western
In short: (§1)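 Compounds were tested in HAP1 cells differing only in MTAP status (endogenous expression versus null). Cellular SDMA levels were then measured by in-cell western, giving an IC50 in each background.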

[6] = system: HAP1 MTAP-intact cell line; assay: SDMA in-cell western assay, HAP1 MTAP-intact; assay type: cell-based; details: Homo sapiens, HAP1, SDMA in-cell western, HAP1 MTAP-intact; read-out: MTAP HAP1 intact IC50
In short: as §1

[7] = read-out: No Cofactor/ rel IC50
[8] = HAP1, viability assay, MTAP-deleted cell line
[9] = read-out: HAP 1 MTAP deleted IC50
[10] = IC50 ratio HAP1 MTAP-intact / HAP1 MTAP-deleted
[11] = read-out: HAP1 MTAP deleted IC50
[12] = HAP1, viability IC50, MTAP-deleted cell line

T1 sequence (O14744 whole entry): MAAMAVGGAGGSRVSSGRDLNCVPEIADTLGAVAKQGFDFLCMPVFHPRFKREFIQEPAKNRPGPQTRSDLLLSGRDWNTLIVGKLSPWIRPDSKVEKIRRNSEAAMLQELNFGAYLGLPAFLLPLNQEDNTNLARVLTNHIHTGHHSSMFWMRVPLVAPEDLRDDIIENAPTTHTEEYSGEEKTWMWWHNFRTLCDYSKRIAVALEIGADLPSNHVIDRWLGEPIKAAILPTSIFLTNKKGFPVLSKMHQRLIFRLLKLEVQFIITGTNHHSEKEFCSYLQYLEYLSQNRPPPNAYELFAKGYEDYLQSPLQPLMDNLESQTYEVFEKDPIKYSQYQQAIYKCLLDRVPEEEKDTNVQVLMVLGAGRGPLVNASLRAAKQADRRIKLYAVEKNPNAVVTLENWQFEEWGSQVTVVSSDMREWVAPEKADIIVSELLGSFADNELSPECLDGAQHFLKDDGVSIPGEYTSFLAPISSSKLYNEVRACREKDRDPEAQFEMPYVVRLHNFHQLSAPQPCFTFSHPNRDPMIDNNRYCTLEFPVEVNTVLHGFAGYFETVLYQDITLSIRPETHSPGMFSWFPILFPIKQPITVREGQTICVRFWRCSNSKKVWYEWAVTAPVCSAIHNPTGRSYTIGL
T1 sequence (Q9BQA1 whole entry partner): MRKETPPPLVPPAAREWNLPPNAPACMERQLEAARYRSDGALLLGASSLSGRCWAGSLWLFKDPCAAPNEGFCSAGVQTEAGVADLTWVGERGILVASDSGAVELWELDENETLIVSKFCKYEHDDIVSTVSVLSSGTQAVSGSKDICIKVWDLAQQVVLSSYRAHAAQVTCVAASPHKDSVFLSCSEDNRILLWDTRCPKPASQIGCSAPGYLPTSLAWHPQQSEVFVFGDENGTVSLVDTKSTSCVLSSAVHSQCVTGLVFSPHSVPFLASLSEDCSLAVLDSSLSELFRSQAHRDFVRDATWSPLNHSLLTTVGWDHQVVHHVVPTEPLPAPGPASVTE

Structure (SMILES) | IC50 [1, 7] | IC50 [2] | IC50 [4] | IC50 [5, 9] | IC50 [6] | IC50 ([1]; read-out: No Cofactor/rel IC50) | IC50 [5, 11] | IC50 [3, 8] | MTAP intact/deleted ratio [5, 10] | IC50 ([3]; HAP1, viability assay, HAP1 MTAP-deleted) | IC50 [3, 12] | MTAP intact/deleted ratio ([5]; IC50 ratio HAP1 MTAP-intact vs HAP1 MTAP-deleted)
CC(=O)N1CCC(c2cccc(C3CCCCN3C(=O)C(=O)Nc3cncc(C)c3)c2)CC1 (stereo not drawn) [Compound 7, 2-(2-(3-(1-acetylpiperidin-4-yl)phenyl)piperidin-1-yl)-N-(5-methylpyridin-3-yl)-2-oxoacetamide] | > 500 nM | > 500 nM | 50 to 500 nM | > 1000 nM | > 1000 nM | – | – | > 10000 nM | C (an IC50 ratio of less than 3 fold) | – | – | –
COc1ncc(NC(=O)C(=O)N2C[C@@H](C)CC[C@@H]2c2cnc3[nH]ncc3c2)cc1C(N)=O (single isomer, unassigned) [Compound 537] | – | > 500 nM | > 500 nM | > 1000 nM | > 1000 nM | > 500 nM | – | – | C (an IC50 ratio of less than 3 fold) | – | > 10000 nM | –
CCc1cc(NC(=O)C(=O)N2C[C@@H](C)CC[C@@H]2c2ccc3sc(C45CC(CN(C)C4)C5)nc3c2)cnc1N [Compound 1212, N-(6-amino-5-ethylpyridin-3-yl)-2-((2R,5S)-5-methyl-2-(2-(3-methyl-3-azabicyclo[3.1.1]heptan-1-yl)benzo[d]thiazol-5-yl)piperidin-1-yl)-2-oxoacetamide] | – | < 50 nM | < 50 nM | – | < 100 nM | < 50 nM | < 100 nM | < 1000 nM | – | – | – | B (an IC50 ratio greater than or equal to 3 fold but lower than 10 fold)
COc1ncc(NC(=O)C(=O)N2C[C@H](C)CC[C@H]2c2ccc3c(c2)CC(=O)N3)cc1C(N)=O (single isomer, unassigned) [Compound 453] | – | > 500 nM | > 500 nM | – | > 1000 nM | > 500 nM | > 1000 nM | > 10000 nM | C (an IC50 ratio of less than 3 fold) | – | – | –

Now from value to compound, other results behind:

IC50 [1, 7] | IC50 [2] | IC50 [4] | IC50 [5, 9] | IC50 [6] | IC50 ([1]; read-out: No Cofactor/rel IC50) | IC50 [5, 11] | Structure (SMILES) | IC50 [3, 8] | MTAP intact/deleted ratio [5, 10] | IC50 ([3]; HAP1, viability assay, HAP1 MTAP-deleted) | IC50 [3, 12] | MTAP intact/deleted ratio ([5]; IC50 ratio HAP1 MTAP-intact vs HAP1 MTAP-deleted)
– | > 500 nM | > 500 nM | – | > 1000 nM | > 500 nM | > 1000 nM | CNc1nc2cc([C@@H]3CC[C@@H](C)CN3C(=O)C(=O)Nc3cnc(N)c(C)c3)ccc2s1 (single isomer, unassigned) [Compound 855] | – | C (an IC50 ratio of less than 3 fold) | > 10000 nM | – | –
– | 50 to 500 nM | < 50 nM | 100 to 1000 nM | > 1000 nM | 50 to 500 nM | – | CC(=O)Nc1ccc([C@@H]2CC[C@@H](C)CN2C(=O)C(=O)Nc2cncc(C(N)=O)c2)cn1 (single isomer, unassigned) [Compound 934] | > 10000 nM | A (an IC50 ratio greater than or equal to 10 fold) | – | – | –
– | 50 to 500 nM | < 50 nM | > 1000 nM | > 1000 nM | 50 to 500 nM | – | C[C@@H]1CC[C@@H](c2cccc(S(N)(=O)=O)c2)N(C(=O)C(=O)Nc2cncc(C(N)=O)c2)C1 (racemic) [Compound 661, 5-(2-(5-methyl-2-(3-sulfamoylphenyl)piperidin-1-yl)-2-oxoacetamido)nicotinamide] | – | B (an IC50 ratio greater than or equal to 3 fold but lower than 10 fold) | – | > 10000 nM | –
> 500 nM | > 500 nM | 50 to 500 nM | > 1000 nM | > 1000 nM | – | – | Cc1cc(NC(=O)C(=O)N2CCCCC2c2cccc3c2ncn3C)cnc1N (stereo not drawn) [Compound 132, N-(6-Amino-5-methyl-3-pyridyl)-2-[2-(1-methylbenzimidazol-4-yl)-1-piperidyl]-2-oxo-acetamide] | > 10000 nM | B (an IC50 ratio greater than or equal to 3 fold but lower than 10 fold) | – | – | –
– | 50 to 500 nM | < 50 nM | < 100 nM | 100 to 1000 nM | 50 to 500 nM | – | Cc1nc2cc([C@H]3CC[C@H](C)CN3C(=O)C(=O)Nc3cnc(N)c(C)c3)ccc2[nH]1 (single isomer, unassigned) [Compound 947] | < 1000 nM | A (an IC50 ratio greater than or equal to 10 fold) | – | – | –
